# Source: ChEMBL document CHEMBL3885861, “Open TG-GATES”
# Species on record: Rattus norvegicus
# Assay: Open TG-GATES - Regimen: Single
# Assay type: toxicity, organism-based, Sprague-Dawley
# Parameters: regimen Single, gender Male, age 6 weeks
# Details: in vivo, po, 1000 mg/kg, route gavage, dose level Middle; for APTT / Bas / Eos / Fbg / Hb / Ht / Lym / MCH / MCHC / MCV / Mono / Neu / PT / Plat / RBC / Ret / WBC: tissue Blood; for KIDNEY_L / KIDNEY_R / KIDNEY_TOTAL: tissue Kidney; for LIVER: tissue Liver; for A/G / ALP / ALT / AST / BUN / CRE / Ca / Cl / DBIL / GLC / IP / K / LDH / Na / PL / RALB / TBIL / TC / TG / TP / gamma-GTP: tissue Plasma
compound,measurement,setting,value
Clc1c(Cl)c(Cl)c(Cl)c(Cl)c1Cl [PERCHLOROBENZENE],TERMINAL_BW,3 h,222.7 g
same,APTT,3 h,18.7 s
same,Bas,3 h,0%
same,Eos,3 h,1%
same,Fbg,3 h,227 mg/dL
same,Hb,3 h,13.3 g/dL
same,Ht,3 h,38%
same,Lym,3 h,78%
same,MCH,3 h,21.8 pg
same,MCHC,3 h,35%
same,MCV,3 h,62.1 fL
same,Mono,3 h,3.2%
same,Neu,3 h,16.4%
same,PT,3 h,11.8 s
same,Plat,3 h,122.1 x10_4/uL
same,RBC,3 h,612 x10_4/ul
same,Ret,3 h,7.6%
same,WBC,3 h,85.3 x10_2/uL
same,KIDNEY_L,3 h,1 g
same,KIDNEY_R,3 h,1 g
same,KIDNEY_TOTAL,3 h,1.9 g
same,LIVER,3 h,10.4 g
same,A/G,3 h,1.7
same,ALP,3 h,992 IU/L
same,ALT,3 h,35.2 IU/L
same,AST,3 h,79.2 IU/L
same,BUN,3 h,11.6 mg/dL
same,CRE,3 h,0.4 mg/dL
same,Ca,3 h,10.9 mg/dL
same,Cl,3 h,104 meq/L
same,DBIL,3 h,0.066 mg/dL
same,GLC,3 h,198.4 mg/dL
same,IP,3 h,8.8 mg/dL
same,K,3 h,3.8 meq/L
same,LDH,3 h,214 IU/L
same,Na,3 h,141.6 meq/L
same,PL,3 h,143.8 mg/dL
same,RALB,3 h,3.5 g/dL
same,TBIL,3 h,0.1 mg/dL
same,TC,3 h,68.6 mg/dL
same,TG,3 h,94.8 mg/dL
same,TP,3 h,5.5 g/dL
same,gamma-GTP,3 h,1 IU/L
same,TERMINAL_BW,6 h,217.7 g
same,APTT,6 h,18.9 s
same,Bas,6 h,0.2%
same,Eos,6 h,1%
same,Fbg,6 h,223.2 mg/dL
same,Hb,6 h,13.4 g/dL
same,Ht,6 h,38.5%
same,Lym,6 h,71.2%
same,MCH,6 h,21.6 pg
same,MCHC,6 h,34.9%
same,MCV,6 h,62.1 fL
same,Mono,6 h,3.2%
same,Neu,6 h,23.4%
same,PT,6 h,12.2 s
same,Plat,6 h,132.8 x10_4/uL
same,RBC,6 h,620.2 x10_4/ul
same,Ret,6 h,7.3%
same,WBC,6 h,100.6 x10_2/uL
same,KIDNEY_L,6 h,1 g
same,KIDNEY_R,6 h,0.9 g
same,KIDNEY_TOTAL,6 h,1.9 g
same,LIVER,6 h,9 g
same,A/G,6 h,1.7
same,ALP,6 h,1078.8 IU/L
same,ALT,6 h,33.4 IU/L
same,AST,6 h,79 IU/L
same,BUN,6 h,10 mg/dL
same,CRE,6 h,0.4 mg/dL
same,Ca,6 h,10.5 mg/dL
same,Cl,6 h,103.4 meq/L
same,DBIL,6 h,0.064 mg/dL
same,GLC,6 h,186 mg/dL
same,IP,6 h,9 mg/dL
same,K,6 h,4.1 meq/L
same,LDH,6 h,224 IU/L
same,Na,6 h,141.4 meq/L
same,PL,6 h,127.4 mg/dL
same,RALB,6 h,3.4 g/dL
same,TBIL,6 h,0.1 mg/dL
same,TC,6 h,69.4 mg/dL
same,TG,6 h,55.2 mg/dL
same,TP,6 h,5.4 g/dL
same,gamma-GTP,6 h,1 IU/L
same,TERMINAL_BW,9 h,216.4 g
same,APTT,9 h,19.1 s
same,Bas,9 h,0.2%
same,Eos,9 h,1%
same,Fbg,9 h,220.6 mg/dL
same,Hb,9 h,13.5 g/dL
same,Ht,9 h,38.5%
same,Lym,9 h,72%
same,MCH,9 h,21.2 pg
same,MCHC,9 h,34.9%
same,MCV,9 h,60.6 fL
same,Mono,9 h,2.8%
same,Neu,9 h,23%
same,PT,9 h,12.3 s
same,Plat,9 h,124.7 x10_4/uL
same,RBC,9 h,636 x10_4/ul
same,Ret,9 h,6.9%
same,WBC,9 h,72.6 x10_2/uL
same,KIDNEY_L,9 h,1 g
same,KIDNEY_R,9 h,1 g
same,KIDNEY_TOTAL,9 h,1.9 g
same,LIVER,9 h,8.8 g
same,A/G,9 h,1.6
same,ALP,9 h,926.6 IU/L
same,ALT,9 h,27.4 IU/L
same,AST,9 h,63.4 IU/L
same,BUN,9 h,11.2 mg/dL
same,CRE,9 h,0.3 mg/dL
same,Ca,9 h,10.5 mg/dL
same,Cl,9 h,103.4 meq/L
same,DBIL,9 h,0.058 mg/dL
same,GLC,9 h,201.2 mg/dL
same,IP,9 h,10.4 mg/dL
same,K,9 h,3.8 meq/L
same,LDH,9 h,191.4 IU/L
same,Na,9 h,142 meq/L
same,PL,9 h,121.2 mg/dL
same,RALB,9 h,3.3 g/dL
same,TBIL,9 h,0.1 mg/dL
same,TC,9 h,61 mg/dL
same,TG,9 h,39 mg/dL
same,TP,9 h,5.4 g/dL
same,gamma-GTP,9 h,1.2 IU/L
same,TERMINAL_BW,24 h,230.6 g
same,APTT,24 h,18.3 s
same,Bas,24 h,0.2%
same,Eos,24 h,1%
same,Fbg,24 h,240.8 mg/dL
same,Hb,24 h,13.6 g/dL
same,Ht,24 h,39.3%
same,Lym,24 h,74.2%
same,MCH,24 h,21.3 pg
same,MCHC,24 h,34.5%
same,MCV,24 h,61.6 fL
same,Mono,24 h,3%
same,Neu,24 h,20.6%
same,PT,24 h,11.7 s
same,Plat,24 h,128 x10_4/uL
same,RBC,24 h,637.6 x10_4/ul
same,Ret,24 h,6.5%
same,WBC,24 h,80.8 x10_2/uL
same,KIDNEY_L,24 h,1 g
same,KIDNEY_R,24 h,1 g
same,KIDNEY_TOTAL,24 h,2.1 g
same,LIVER,24 h,11.1 g
same,A/G,24 h,1.5
same,ALP,24 h,901 IU/L
same,ALT,24 h,35.4 IU/L
same,AST,24 h,66.2 IU/L
same,BUN,24 h,14.2 mg/dL
same,CRE,24 h,0.4 mg/dL
same,Ca,24 h,11 mg/dL
same,Cl,24 h,103.4 meq/L
same,DBIL,24 h,0.056 mg/dL
same,GLC,24 h,204.8 mg/dL
same,IP,24 h,6.9 mg/dL
same,K,24 h,3.8 meq/L
same,LDH,24 h,230.6 IU/L
same,Na,24 h,141.4 meq/L
same,PL,24 h,152.8 mg/dL
same,RALB,24 h,3.4 g/dL
same,TBIL,24 h,0.096 mg/dL
same,TC,24 h,80.4 mg/dL
same,TG,24 h,133.6 mg/dL
same,TP,24 h,5.6 g/dL
same,gamma-GTP,24 h,1 IU/L
